Assay [1] addresses GDP-bound NRAS wild-type protein (Homo sapiens, UniProt P01111). Nature of the assay: Binding to NRAS by surface plasmon resonance (SPR), Single Cycle Kinetics. Conditions: KD ratio NRAS/KRAS, SPR. (In general: In SPR one partner is held on a chip, and binding of the other changes the refractive index at the surface.)
Assay [2] addresses GDP-bound HRAS wild-type protein (Homo sapiens, UniProt P01112). Nature of the assay: Binding to HRAS by surface plasmon resonance (SPR), Single Cycle Kinetics. The following applies: KD ratio HRAS/KRAS, SPR.

GDP-bound HRAS wild-type protein, sequence (P01112 whole entry): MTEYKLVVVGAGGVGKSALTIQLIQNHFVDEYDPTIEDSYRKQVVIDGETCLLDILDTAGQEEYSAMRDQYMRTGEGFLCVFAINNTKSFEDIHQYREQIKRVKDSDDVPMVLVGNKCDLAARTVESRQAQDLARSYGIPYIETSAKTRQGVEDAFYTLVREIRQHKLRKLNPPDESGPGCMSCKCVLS
GDP-bound NRAS wild-type protein, sequence (P01111 whole entry): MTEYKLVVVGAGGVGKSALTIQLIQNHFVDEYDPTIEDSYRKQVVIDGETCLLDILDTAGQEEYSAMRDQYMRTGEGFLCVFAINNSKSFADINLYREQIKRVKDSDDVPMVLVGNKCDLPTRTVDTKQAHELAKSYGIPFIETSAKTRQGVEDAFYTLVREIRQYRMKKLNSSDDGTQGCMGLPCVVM

Take `CCO[C@@H]1C[C@H]2C(=O)NC3(CCC3)C(=O)N(C)[C@@H](C3CCCC3)C(=O)N(CC)[C@H](C(=O)N(C)C)CC(=O)N(C)[C@@H](CC)C(=O)N[C@@H]([C@@H](C)CC)C(=O)N(C)CC(=O)N(C)[C@H]3CCCCCN(C3=O)[C@@H](Cc3ccc(C(F)(F)F)cc3)C(=O)N(C)CC(=O)N[C@@H](CCc3cc(F)c(C(F)(F)F)c(F)c3)C(=O)N2C1` [PP0633]: the “NRAS/KRAS (ratio of KD value with respect to GDP-bound NRAS wild-type protein to KD value with respect to KRAS)” value in assay [1] is “B (a compound having 3 or more and less than 10 is denoted as B)”. The “HRAS/KRAS (ratio of KD value with respect to GDP-bound HRAS wild-type protein to KD value with respect to KRAS)” value in assay [2] was “B (a compound having 3 or more and less than 10 is denoted as B)”.

Regarding `CCO[C@@H]1C[C@H]2C(=O)NC3(CCC3)C(=O)N(C)[C@@H](C3CCCC3)C(=O)N(CCC3CCC3)[C@H](C(=O)N(C)C)CC(=O)N(C)[C@@H](CC)C(=O)N[C@@H]([C@@H](C)CC)C(=O)N(C)CC(=O)N(C)[C@H]3CCCCCN(C3=O)[C@@H](Cc3ccc(C(F)(F)F)cc3)C(=O)N(C)CC(=O)N[C@@H](CCc3cc(F)c(C(F)(F)F)c(F)c3)C(=O)N2C1` [PP0635], the “NRAS/KRAS (ratio of KD value with respect to GDP-bound NRAS wild-type protein to KD value with respect to KRAS)” value in assay [1] is “B (a compound having 3 or more and less than 10 is denoted as B)”. Also, the “HRAS/KRAS (ratio of KD value with respect to GDP-bound HRAS wild-type protein to KD value with respect to KRAS)” value in assay [2] is “B (a compound having 3 or more and less than 10 is denoted as B)”.

For `CCO[C@@H]1C[C@H]2C(=O)NC3(CCC3)C(=O)N(C)[C@@H](C3CCCC3)C(=O)N(CCC3CCCC3)[C@H](C(=O)N(C)C)CC(=O)N(C)[C@@H](CC)C(=O)N[C@@H]([C@@H](C)CC)C(=O)N(C)CC(=O)N(C)[C@H]3CCCCCN(C3=O)[C@@H](Cc3ccc(C(F)(F)F)cc3)C(=O)N(C)CC(=O)N[C@@H](CCc3cc(F)c(C(F)(F)F)c(F)c3)C(=O)N2C1` [PP0636], the “NRAS/KRAS (ratio of KD value with respect to GDP-bound NRAS wild-type protein to KD value with respect to KRAS)” value in assay [1] is “A (a compound having 10 or more and less than 20 is denoted as A)”. The “HRAS/KRAS (ratio of KD value with respect to GDP-bound HRAS wild-type protein to KD value with respect to KRAS)” value in assay [2] was “A (a compound having 10 or more and less than 20 is denoted as A)”.

`CCO[C@@H]1C[C@H]2C(=O)NC3(CCC3)C(=O)N(C)[C@@H](C3CCCC3)C(=O)N(CCc3ccccc3)[C@H](C(=O)N(C)C)CC(=O)N(C)[C@@H](CC)C(=O)N[C@@H]([C@@H](C)CC)C(=O)N(C)CC(=O)N(C)[C@H]3CCCCCN(C3=O)[C@@H](Cc3ccc(C(F)(F)F)cc3)C(=O)N(C)CC(=O)N[C@@H](CCc3cc(F)c(C(F)(F)F)c(F)c3)C(=O)N2C1` [PP0637]: the “NRAS/KRAS (ratio of KD value with respect to GDP-bound NRAS wild-type protein to KD value with respect to KRAS)” value in assay [1] is “B (a compound having 3 or more and less than 10 is denoted as B)”. Besides, the “HRAS/KRAS (ratio of KD value with respect to GDP-bound HRAS wild-type protein to KD value with respect to KRAS)” value in assay [2] was “B (a compound having 3 or more and less than 10 is denoted as B)”.

With `CCO[C@@H]1C[C@H]2C(=O)NC3(CCC3)C(=O)N(C)[C@@H](C3CCCC3)C(=O)N(CC)[C@H](C(=O)N3CCOCC3)CC(=O)N(C)[C@@H](CC(C)C)C(=O)N[C@@H]([C@@H](C)CC)C(=O)N(C)CC(=O)N(C)[C@H]3CCCCCN(C3=O)[C@@H](Cc3ccc(C(F)(F)F)cc3)C(=O)N(C)CC(=O)N[C@@H](CCc3cc(F)c(C(F)(F)F)c(F)c3)C(=O)N2C1` [PP0638], the “NRAS/KRAS (ratio of KD value with respect to GDP-bound NRAS wild-type protein to KD value with respect to KRAS)” value in assay [1] was “B (a compound having 3 or more and less than 10 is denoted as B)”. In addition, in assay [2], the “HRAS/KRAS (ratio of KD value with respect to GDP-bound HRAS wild-type protein to KD value with respect to KRAS)” value is “B (a compound having 3 or more and less than 10 is denoted as B)”.

Take `CCCN1C(=O)[C@H](C2CCCC2)N(C)C(=O)C2(CCC2)NC(=O)[C@@H]2C[C@@H](OCC)CN2C(=O)[C@H](CCc2cc(F)c(C(F)(F)F)c(F)c2)NC(=O)CN(C)C(=O)[C@H](Cc2ccc(C(F)(F)F)cc2)N2CCCCC[C@@H](C2=O)N(C)C(=O)CN(C)C(=O)[C@H]([C@@H](C)CC)NC(=O)[C@H](CC(C)C)N(C)C(=O)C[C@H]1C(=O)N1CCOCC1` [PP0639]: the “NRAS/KRAS (ratio of KD value with respect to GDP-bound NRAS wild-type protein to KD value with respect to KRAS)” value in assay [1] was “B (a compound having 3 or more and less than 10 is denoted as B)”. The “HRAS/KRAS (ratio of KD value with respect to GDP-bound HRAS wild-type protein to KD value with respect to KRAS)” value in assay [2] was “B (a compound having 3 or more and less than 10 is denoted as B)”.

For `CCO[C@@H]1C[C@H]2C(=O)NC3(CCC3)C(=O)N(C)[C@@H](C3CCCC3)C(=O)N(CCC3CCC3)[C@H](C(=O)N3CCOCC3)CC(=O)N(C)[C@@H](CC(C)C)C(=O)N[C@@H]([C@@H](C)CC)C(=O)N(C)CC(=O)N(C)[C@H]3CCCCCN(C3=O)[C@@H](Cc3ccc(C(F)(F)F)cc3)C(=O)N(C)CC(=O)N[C@@H](CCc3cc(F)c(C(F)(F)F)c(F)c3)C(=O)N2C1` [PP0640], in assay [1], the “NRAS/KRAS (ratio of KD value with respect to GDP-bound NRAS wild-type protein to KD value with respect to KRAS)” value is “B (a compound having 3 or more and less than 10 is denoted as B)”. Further, the “HRAS/KRAS (ratio of KD value with respect to GDP-bound HRAS wild-type protein to KD value with respect to KRAS)” value in assay [2] is “B (a compound having 3 or more and less than 10 is denoted as B)”.

For `CCO[C@@H]1C[C@H]2C(=O)NC3(CCC3)C(=O)N(C)[C@@H](C3CCCC3)C(=O)N(CCC3CCCC3)[C@H](C(=O)N3CCOCC3)CC(=O)N(C)[C@@H](CC(C)C)C(=O)N[C@@H]([C@@H](C)CC)C(=O)N(C)CC(=O)N(C)[C@H]3CCCCCN(C3=O)[C@@H](Cc3ccc(C(F)(F)F)cc3)C(=O)N(C)CC(=O)N[C@@H](CCc3cc(F)c(C(F)(F)F)c(F)c3)C(=O)N2C1` [PP0641], the “NRAS/KRAS (ratio of KD value with respect to GDP-bound NRAS wild-type protein to KD value with respect to KRAS)” value in assay [1] was “A (a compound having 10 or more and less than 20 is denoted as A)”. Moreover, in assay [2], the “HRAS/KRAS (ratio of KD value with respect to GDP-bound HRAS wild-type protein to KD value with respect to KRAS)” value was “A (a compound having 10 or more and less than 20 is denoted as A)”.

For `CCO[C@@H]1C[C@H]2C(=O)NC3(CCC3)C(=O)N(C)[C@@H](C3CCCC3)C(=O)N(CCc3ccccc3)[C@H](C(=O)N3CCOCC3)CC(=O)N(C)[C@@H](CC(C)C)C(=O)N[C@@H]([C@@H](C)CC)C(=O)N(C)CC(=O)N(C)[C@H]3CCCCCN(C3=O)[C@@H](Cc3ccc(C(F)(F)F)cc3)C(=O)N(C)CC(=O)N[C@@H](CCc3cc(F)c(C(F)(F)F)c(F)c3)C(=O)N2C1` [PP0642], in assay [1], the “NRAS/KRAS (ratio of KD value with respect to GDP-bound NRAS wild-type protein to KD value with respect to KRAS)” value was “B (a compound having 3 or more and less than 10 is denoted as B)”. Also, the “HRAS/KRAS (ratio of KD value with respect to GDP-bound HRAS wild-type protein to KD value with respect to KRAS)” value in assay [2] is “B (a compound having 3 or more and less than 10 is denoted as B)”.

On to `CCO[C@@H]1C[C@H]2C(=O)NC3(CCC3)C(=O)N(C)[C@@H](C3CCCC3)C(=O)N(CC)[C@H](C(=O)N(C)C)CC(=O)N(C)[C@@H](CC)C(=O)N[C@@H]([C@@H](C)CC)C(=O)N(C)CC(=O)N(C)[C@H]3CCCCN(C3=O)[C@@H](Cc3ccc(C(F)(F)F)cc3)C(=O)N(C)CC(=O)N[C@@H](CCc3cc(F)c(C(F)(F)F)c(F)c3)C(=O)N2C1` [PP0643], for which the “NRAS/KRAS (ratio of KD value with respect to GDP-bound NRAS wild-type protein to KD value with respect to KRAS)” value in assay [1] was “C (A compound having a KD ratio of 0.1 or more and less than 3 is denoted as C)”. Also, the “HRAS/KRAS (ratio of KD value with respect to GDP-bound HRAS wild-type protein to KD value with respect to KRAS)” value in assay [2] was “B (a compound having 3 or more and less than 10 is denoted as B)”.

Turning to `CCCN1C(=O)[C@H](C2CCCC2)N(C)C(=O)C2(CCC2)NC(=O)[C@@H]2C[C@@H](OCC)CN2C(=O)[C@H](CCc2cc(F)c(C(F)(F)F)c(F)c2)NC(=O)CN(C)C(=O)[C@H](Cc2ccc(C(F)(F)F)cc2)N2CCCC[C@@H](C2=O)N(C)C(=O)CN(C)C(=O)[C@H]([C@@H](C)CC)NC(=O)[C@H](CC)N(C)C(=O)C[C@H]1C(=O)N(C)C` [PP0644], in assay [1], the “NRAS/KRAS (ratio of KD value with respect to GDP-bound NRAS wild-type protein to KD value with respect to KRAS)” value is “C (A compound having a KD ratio of 0.1 or more and less than 3 is denoted as C)”. Also, in assay [2], the “HRAS/KRAS (ratio of KD value with respect to GDP-bound HRAS wild-type protein to KD value with respect to KRAS)” value is “B (a compound having 3 or more and less than 10 is denoted as B)”.
